In patent US8143294B2, “2-sulfanyl-substituted imidazole derivatives and their use as cytokine inhibitors” (priority 2007, dated 2012):

Biological target: p38α (Homo sapiens, UniProt Q16539)
Test: P38α enzyme inhibition assay (ATF-2 phosphorylation ELISA)
Type: biochemical
Conditions: activated p38α, substrate ATF-2, ATP 100 μM, 60 minutes incubation, photometric readout 405 nm; read-out: Kinase assay IC50
Method: P38α Enzyme Inhibition Assay:
First the microtiter plates are coated using a dilution of ATF-2, substrate of p38α. Each step is followed by a threefold washing step. As the substrate doesn't cover the whole surface, blocking buffer is used to capture the free binding sites. In the meantime, the test compounds are diluted using the kinase buffer, which contains ATP [100 μM], phosphatase-inhibitors and the activated p38α.
The different dilutions of the test compounds are pipetted on the plate. ATP and the compounds compete for the enzyme's binding site. During an incubation time of 60 minutes ATF-2 is dual phosphorylated at Thr 69/71 by p38α kinase depending on its degree of inhibition. Next the first antibody is added into the wells. This antibody binds specifically at dual phosphorylated ATF-2 (Thr 69/71). Secondary antibody, that is conjugated with alkaline phosphatase, binds at the first one. Finally 4-NPP is given in the wells and after an incubation under cover of darkness it is photometrically analysed (405 nm).

p38α, sequence (Q16539 whole entry): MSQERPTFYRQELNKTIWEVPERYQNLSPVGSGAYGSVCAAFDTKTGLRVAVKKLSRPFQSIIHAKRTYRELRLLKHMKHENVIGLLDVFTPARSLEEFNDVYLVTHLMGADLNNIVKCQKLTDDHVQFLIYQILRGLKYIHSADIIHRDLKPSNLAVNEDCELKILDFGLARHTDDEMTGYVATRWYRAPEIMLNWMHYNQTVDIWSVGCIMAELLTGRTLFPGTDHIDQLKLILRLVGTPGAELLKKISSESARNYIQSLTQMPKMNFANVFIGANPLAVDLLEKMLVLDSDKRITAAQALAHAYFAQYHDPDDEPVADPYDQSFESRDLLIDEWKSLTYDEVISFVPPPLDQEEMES

Structure (SMILES) | IC50
CC(Nc1cc(-c2[nH]c(SCC(O)CO)nc2-c2ccc(F)cc2)ccn1)c1ccccc1 (stereo not drawn) [Example 8a, 3-(4-(4-Fluorophenyl)-5-(2-(1-phenylethylamino)pyridin-4-yl)-1H-imidazol-2-ylthio)propane-1,2-diol] | 0.042 µM
CC(C)C(C)Nc1cc(-c2[nH]c(SCC(O)CO)nc2-c2ccc(F)cc2)ccn1 (stereo not drawn) [Example 8f, 3-(4-(4-Fluorophenyl)-5-(2-(3-methylbutan-2-ylamino)pyridin-4-yl)-1H-imidazol-2-ylthio)propane-1,2-diol] | 0.014 µM
OCC(O)CSc1nc(-c2ccc(F)cc2)c(-c2ccnc(NC3CCOCC3)c2)[nH]1 (stereo not drawn) [Example 8i, 3-(4-(4-Fluorophenyl)-5-(2-(tetrahydro-2H-pyran-4-ylamino)pyridin-4-yl)-1H-imidazol-2-ylthio)propane-1,2-diol] | 0.0033 µM
CC(C)C(C)Nc1cc(-c2[nH]c(SCCO)nc2-c2ccc(F)cc2)ccn1 (stereo not drawn) [Example 8k, 2-(4-(4-Fluorophenyl)-5-(2-(3-methylbutan-2-ylamino)pyridin-4-yl)-1H-imidazol-2-ylthio)ethanol] | 0.01 µM
CC(C)C(C)Nc1cc(-c2[nH]c(SC[C@H](O)CO)nc2-c2ccc(F)cc2)ccn1 (stereo partly drawn) [Example 8l, (2R)-3-(4-(4-Fluorophenyl)-5-(2-(3-methylbutan-2-ylamino)pyridin-4-yl)-1H-imidazol-2-ylthio)propane-1,2-diol] | 0.017 µM
CC(C)C(C)Nc1cc(-c2[nH]c(SC[C@@H](O)CO)nc2-c2ccc(F)cc2)ccn1 (stereo partly drawn) [Example 8m, (2S)-3-(4-(4-Fluorophenyl)-5-(2-(3-methylbutan-2-ylamino)pyridin-4-yl)-1H-imidazol-2-ylthio)propane-1,2-diol] | 0.0095 µM
CC(C)Nc1cc(-c2[nH]c(SC[C@H](O)CO)nc2-c2ccc(F)cc2)ccn1 [Example 8n, (2R)-3-(4-(4-Fluorophenyl)-5-(2-(isopropylamino)pyridin-4-yl)-1H-imidazol-2-ylthio)propane-1,2-diol] | 0.0055 µM
CC(C)Nc1cc(-c2[nH]c(SC[C@@H](O)CO)nc2-c2ccc(F)cc2)ccn1 [Example 8o, (2S)-3-(4-(4-Fluorophenyl)-5-(2-(isopropylamino)pyridin-4-yl)-1H-imidazol-2-ylthio)propane-1,2-diol] | 0.0032 µM
CCOP(=O)(CSc1nc(-c2ccc(F)cc2)c(-c2ccnc(NC(C)c3ccccc3)c2)[nH]1)OCC (stereo not drawn) [Example 8r, Diethyl (4-(4-fluorophenyl)-5-(2-(1-phenylethylamino)pyridin-4-yl)-1H-imidazol-2-ylthio)methylphosphonate] | 0.4 µM
OCCSc1nc(-c2ccc(F)cc2)c(-c2ccnc(NC3CCOCC3)c2)[nH]1 [Example 8v, 2-(4-(4-Fluorophenyl)-5-(2-(tetrahydro-2H-pyran-4-ylamino)pyridin-4-yl)-1H-imidazol-2-ylthio)ethanol] | 0.0023 µM
CC(Nc1cc(-c2[nH]c(SCCO)nc2-c2ccc(F)cc2)ccn1)c1ccccc1 (stereo not drawn) [Example 8x, 2-(4-(4-Fluorophenyl)-5-(2-(1-phenylethylamino)pyridin-4-yl)-1H-imidazol-2-ylthio)ethanol] | 0.014 µM

Continued by falling IC50, values first:

IC50 | Structure (SMILES)
3.6 µM | OCC(O)CSc1nc(-c2ccc(F)cc2)c(-c2ccncc2)[nH]1 (stereo not drawn) [reference compound]
0.1 µM | CNc1cc(-c2[nH]c(SCC(O)CO)nc2-c2ccc(F)cc2)ccn1 (stereo not drawn) [Example 8e, 3-(4-(4-Fluorophenyl)-5-(2-(methylamino)pyridin-4-yl)-1H-imidazol-2-ylthio)propane-1,2-diol]
0.087 µM | OCC(O)CSc1nc(-c2ccc(F)cc2)c(-c2ccnc(NCc3ccccc3)c2)[nH]1 (stereo not drawn) [Example 8b, 3-(5-(2-(1-Benzylamino)pyridin-4-yl)-4-(4-fluorophenyl)-1H-imidazol-2-ylthio)propane-1,2-diol]
0.036 µM | CC(Nc1cc(-c2[nH]c(SCC(=O)O)nc2-c2ccc(F)cc2)ccn1)c1ccccc1 (stereo not drawn) [Example 8q, 2-(4-(4-fluorophenyl)-5-(2-(1-phenylethylamino)pyridin-4-yl)-1H-imidazol-2-ylthio)acetic acid]
0.035 µM | COC(=O)CSc1nc(-c2ccc(F)cc2)c(-c2ccnc(NC(C)c3ccccc3)c2)[nH]1 (stereo not drawn) [Example 8p, methyl 2-(4-(4-fluorophenyl)-5-(2-(1-phenylethylamino)pyridin-4-yl)-1H-imidazol-2-ylthio)acetate]
0.026 µM | CCNc1cc(-c2[nH]c(SCC(O)CO)nc2-c2ccc(F)cc2)ccn1 (stereo not drawn) [Example 8d, 3-(5-(2-(Ethylamino)pyridin-4-yl)-4-(4-fluorophenyl)-1H-imidazol-2-ylthio)propane-1,2-diol]
0.02 µM | COC(=O)CSc1nc(-c2ccc(F)cc2)c(-c2ccnc(NC(C)C(C)C)c2)[nH]1 (stereo not drawn) [Example 8s, Methyl 2-(4-(4-fluorophenyl)-5-(2-(3-methylbutan-2-ylamino)pyridin-4-yl)-1H-imidazol-2-ylthio)acetate]
0.013 µM | CC(C)CNc1cc(-c2[nH]c(SCC(O)CO)nc2-c2ccc(F)cc2)ccn1 (stereo not drawn) [Example 8c, 3-(4-(4-Fluorophenyl)-5-(2-(isobutylamino)pyridin-4-yl)-1H-imidazol-2-ylthio)propane-1,2-diol]
0.0051 µM | CCC(C)Nc1cc(-c2[nH]c(SCC(O)CO)nc2-c2ccc(F)cc2)ccn1 (stereo not drawn) [Example 8g, 3-(4-(4-Fluorophenyl)-5-(2-(sec-butylamino)pyridin-4-yl)-1H-imidazol-2-ylthio)propane-1,2-diol]
0.0036 µM | CC(C)Nc1cc(-c2[nH]c(SCC(O)CO)nc2-c2ccc(F)cc2)ccn1 (stereo not drawn) [Example 8h, 3-(4-(4-Fluorophenyl)-5-(2-(isopropylamino)pyridin-4-yl)-1H-imidazol-2-ylthio)propane-1,2-diol]
0.0036 µM | COC(=O)CSc1nc(-c2ccc(F)cc2)c(-c2ccnc(NC(C)C)c2)[nH]1 [Example 8t, Methyl 2-(4-(4-fluorophenyl)-5-(2-(isopropylamino)pyridin-4-yl)-1H-imidazol-2-ylthio)acetate]
0.003 µM | CC(C)Nc1cc(-c2[nH]c(SCCO)nc2-c2ccc(F)cc2)ccn1 [Example 8u, 2-(4-(4-Fluorophenyl)-5-(2-(isopropylamino)pyridin-4-yl)-1H-imidazol-2-ylthio)ethanol]
0.002 µM | OCCSc1nc(-c2ccc(F)cc2)c(-c2ccnc(N[C@H]3CC[C@H](O)CC3)c2)[nH]1 [Example 8w, (1R,4R)-4-(4-(4-(4-Fluorophenyl)-2-(2-hydroxyethylthio)-1H-imidazol-5-yl)pyridin-2-ylamino)cyclohexanol]
